Laboratory results: publication PMC5300155, “Biochemical and biophysical investigations of the interaction between human glucokinase and pro-apoptotic BAD” (PLoS ONE, 2017)

How the values were obtained:
[1] = target: T1, human pancreatic GCK (Homo sapiens, UniProt P35557); experiment: GCK activity, G6PDH-linked assay (lab's routine assay, 25°C); format: biochemical
T1 construct: hexahistidine (N); made in house; host or cells: glucokinase auxotroph BM5340(DE3)
T1 sequence (P35557 1-465): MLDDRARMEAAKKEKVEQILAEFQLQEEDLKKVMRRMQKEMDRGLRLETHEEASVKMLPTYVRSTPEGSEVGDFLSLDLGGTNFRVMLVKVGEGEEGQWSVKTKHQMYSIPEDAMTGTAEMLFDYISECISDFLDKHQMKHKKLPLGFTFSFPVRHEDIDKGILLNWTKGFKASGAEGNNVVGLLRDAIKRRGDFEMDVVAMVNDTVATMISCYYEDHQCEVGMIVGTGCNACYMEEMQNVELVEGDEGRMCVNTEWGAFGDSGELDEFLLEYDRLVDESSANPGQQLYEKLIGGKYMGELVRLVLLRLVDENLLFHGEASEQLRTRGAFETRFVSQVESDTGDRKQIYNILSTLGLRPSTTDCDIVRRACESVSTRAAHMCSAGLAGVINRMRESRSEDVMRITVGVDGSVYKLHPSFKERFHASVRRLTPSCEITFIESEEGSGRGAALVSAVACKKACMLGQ
Method: Recombinant human pancreatic GCK containing an N-terminal hexahistidine tag was produced in the glucokinase auxotroph BM5340(DE3) and purified using a previously described procedure. TEV protease was expressed as a GST-fusion protein from a pGEX plasmid encoding the S219V variant, provided by David Waugh (Addgene plasmid 8827). Expression was induced with IPTG (1 mM) for 4 h at 30°C. Cell pellets were resuspended in Tris buffer (50 mM, pH 8.0) containing NaCl (100 mM), glycerol (10% v/v), benzamidine (1 mM) and dithiothreitol (10 mM) and lysed via French Press. Polyethyleneimine (0.1%) was added to the lysate and protein was purified on a glutathione-affinity column (GSTrap, GE Sciences). TEV protease was flash frozen and stored at -80°C for up to 1 month.
GCK activity was assayed using a glucose 6-phosphate dehydrogenase (G6PDH)-linked assay at 25°C. 50 nM GCK was assayed in buffer containing HEPES (100 mM, pH 7.4), KCl (50 mM), NADP^+ (0.5 mM), DTT (10 mM), MgCl2 (7 mM), G6PDH (1.5 U) and glucose (0–100 mM) in a total volume of […]. Addition of ATP (6 mM) initiated the reaction. Production of NADPH was measured at 340 nm. To determine the effect of BAD on GCK activity, 5 μL of BAD or buffer control was added to the reaction in a final volume of 100 μL. K0.5 values were determined by fitting to the Hill equation. The effect of BAD on GCK activity is reported as the percent rate increase at individual glucose concentrations, calculated as the average of a minimum of four rates of BAD-containing assays divided by the average of rates of BAD buffer-containing assays. The results represent the average of at least three independent preparations of pure BAD.

[2] = target: T2, Bcl-xL (Homo sapiens, UniProt Q07817, DEL45-84); experiment: Fluorescence polarization competition with f-BH3 for binding to Bcl-xL
T2 construct: made in house
T2 sequence (Q07817 with tags, fused parts or gaps DEL45-84): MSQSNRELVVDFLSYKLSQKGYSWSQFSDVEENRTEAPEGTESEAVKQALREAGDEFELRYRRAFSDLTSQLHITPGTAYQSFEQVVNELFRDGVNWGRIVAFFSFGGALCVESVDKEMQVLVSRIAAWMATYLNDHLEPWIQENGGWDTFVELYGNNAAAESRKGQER
Method: Exon 1 of human bcl-xl lacking the C-terminal residues 189–233 was obtained from Stanley Korsmeyer (Addgene plasmid 8755) and site-directed mutagenesis was performed to create the Δ45–84, Δ210–233 variant. Bcl-xL was expressed and purified using a modified procedure described previously. Briefly, Bcl-xL was purified by nickel affinity chromatography and dialyzed against potassium phosphate buffer (20 mM, pH 7.4) containing NaCl (50 mM), EDTA (1 mM), and DTT (10 mM). Protein was applied to a Superdex 200 10/30 HR size-exclusion column, at a flow rate of 0.02 mL/min, to remove aggregate and oligomers prior to binding assays.
A fluorescence polarization assay developed by Zhang, et al. was utilized to measure interactions between BAD and its binding partners. Two 21-residue FITC-labeled peptides containing the BH3 domain of BAD were synthesized and purified to >95% by Peptide2.0 (f-BH3 = NLWAAQRYGRELRRMSDK(FITC)FVD; f-pBH3 = NLWAAQRYGRELRRM(p)SDK(FITC) FVD). Polarization was measured at room temperature with an excitation wavelength of 485 nm and an emission wavelength of 530 nm using a SpectraMax M5 microplate reader (Molecular Devices). Experiments to measure binding constants of the fluorescent peptides to Bcl-xL or GCK were performed in black 96-well plates. Each well contained 15 nM peptide, 60 μL BAD buffer (0.1 M Tris, 0.1 M KCl, 0.5 M arginine, 2.5 mM CHAPS, 5 mM TCEP, 10% glycerol, pH 8.5) and variable concentrations of Bcl-xL (0–2.25 μM) or GCK (0–400 μM) in assay buffer (20 mM phosphate buffer, pH 7.4, 1 mM EDTA, 50 mM NaCl, 10 mM DTT) in a final volume of 120 μL. High GCK concentrations were chosen in an effort to detect a signal indicating a binding event. Assays containing GCK also contained 250 mM glucose. […] Plates were incubated at room temperature in the dark for 15 min prior to polarization measurements.

## NLWAAQRYGRELRRM(p)SDKFVD [pBH3, 21-residue phosphorylated peptide containing the BH3 domain of BAD]
[1]; Fig 6B, GCK alone: H = 1.4
  Hill coefficient H of GCK in presence of pBH3: 1.5
[1]; Fig 6B, GCK alone: K0.5 = 4.6 mM, Hill equation fit
  K0.5 (glucose) of GCK in presence of pBH3: 3.7 mM
[1]; Fig 6B, GCK alone: kcat = 33.2 s^-1
  kcat of GCK in presence of pBH3: 31.4 s^-1
[1]; peptide concentrations up to 50 μM
  Change in GCK activity, peptide up to 50 μM: no change in GCK activity
[1]; peptide up to 5 μM
  Effect on kcat, K0.5 or Hill coefficient of GCK (peptide): does not impact the kcat, K0.5 or Hill coefficient of human GCK
[2]; ITC and fluorescence polarization assays
  Ability to interact with Bcl-xL (in words): significantly impaired in their ability to interact with Bcl-xL

B1: BAD-GST: recombinant human BAD with N-terminal hexahistidine tag and C-terminal GST fusion, TEV consensus sequence between (protein)
chain: MFQIPEFEPSEQEDSSSAERGLGPSPAGDGPSGSGKHHRQAPGLLWDASHQQEQPTSSSHHGGAGAVEIRSRHSSYPAGTEDDEGMGEEPSPFRGRSRSAPPNLWAAQRYGRELRRMSDEFVDSFKKGLPRPKSAGTATQMRQSSSWTRVFQSWWDRNLGRGSSAPSQ
modifications: left off: His6, N-terminal, state not stated | GST, C-terminal, kept
[1]; 0.8 mM glucose, BAD-GST ≥ 2 μM, average of at least three independent BAD preparations
  Increase in GCK rate: 10%
[1]; BAD-GST 8 μM, variable glucose
  Effect on kcat, K0.5 or Hill coefficient of GCK (BAD-GST): does not alter the kcat, K0.5 or Hill coefficient of GCK
[1]; glucose 0.5–1.0 mM
  Stimulation of GCK activity (in words): small, but statistically significant extent
[1]; high concentrations of recombinant BAD, glucose well below K0.5
  Increase in GCK activity (abstract): < 15%
[2]; 200 nM f-BH3, 50 nM Bcl-xL, competitor 0–50 μM, room temperature, 15 min
  IC50: 130 nM
